Measurements reported in paper PMC10137182, “Novel CDK12/13 Inhibitors AU-15506 and AU-16770 Are Potent Anti-Cancer Agents in EGFR Mutant Lung Adenocarcinoma with and without Osimertinib Resistance” (Cancers, 2023).
pIC50: −log10 of the molar value. Read-outs that look alike come from different tables or passages of the source.

Columns and labels:
[1] = target: FGFR1 (Homo sapiens, UniProt P11362); set-up: method as in PMID 19282669; details: at 1 μM; cited from earlier work
[2] = test system: PC9-osiR-NCI1-derived tumors; assay: Subcutaneous xenograft mouse model; format: in vivo, athymic female nude mice
Procedure: All mice xenograft studies were conducted on 5–6-week-old female athymic nude mice […] with approval from the NCI Animal Care and Use Committee (ACUC). Mice were obtained from NCI-Frederick and maintained in a pathogen-free facility at the NCI. H1975-osiR-NCI1 or PC9-osiR-NCI1 cells were cultured in RPMI (Millipore-Sigma) supplemented with 10% fetal bovine serum (Gemini) and 1% penicillin/streptomycin. All cell lines were then cultured in a humidified incubator with 5% CO2 at 37 °C. Cells were detached using 0.25% trypsin (ThermoFisher) and resuspended in PBS prior to implantation. Approximately 2 × 10^6 cells/0.1 mL/mouse were implanted subcutaneously. […] Tumor growth was monitored twice weekly by bilateral caliper measurement and tumor volume was calculated using the length × diameter^2 formula. Mice with tumor volume <200 mm^3 were randomized into vehicle or treatment groups to ensure equal distribution across groups. However, for tumor tissue collection and lysate preparation, mice with xenografts were maintained with osimertinib until tumor size reached approximately 900 mm^3 prior to drug treatment for 5 days. Vehicle (0.5% methyl cellulose), osimertinib (5 mg/kg/day), AU-15506 (5 mg/kg/day), or AU-16770 (5 mg/kg/day) were administered by oral gavage. AU-15506 or AU-16770 were prepared in a solution containing 10% PEG400, 10% D-ɑ-tocopheryl polyethylene glycol succinate (TPGS), and 0.4% Tween 80. Tumor size was measured twice weekly. Tumor volume for each mouse was converted to percent change based on a baseline volume of 100% on treatment day 0. Tumor growth inhibition was assessed by comparison of either the average tumor volume or mean changes in tumor volume for the control and treatment groups. Statistical significance was evaluated using a two-tailed Student’s t test.

[3] = test system: PC9-osiR-NCI1 cells; assay: Cell-growth-inhibition end-point assay (CellTiter-Glo, 72 h); format: cell-based; details: Homo sapiens, read-out: IC50 (osimertinib), PC9-osiR-NCI1
Procedure: (§1) After 3–4 days of growth, surviving cells were trypsinized and plated again at the same initial density and the next day, the medium was replaced with a fresh growth medium, supplemented with 2× (relative to the previous concentration) of osimertinib. This process continued until osimertinib concentration reached […]. The newly generated osimertinib-resistant cells (H1975-osiR-NCI1, PC9-osiR-NCI1, HCC827-osiR-NCI1, and HCC827-osiR-NCI2) were then maintained at […] osimertinib.
(§2) Approximately 1500 cells/[…] were plated in 96-well plates with 4 wells for each treatment condition. Plates were incubated at 37 °C. For the cell growth assay, one set of cells was treated each day for 5 days with cell titer glow reagent (Promega), and luciferase luminescence (indicator of cell viability) was measured according to the manufacturer’s protocol. For the growth inhibition end-point assay, cells in 96-well plates were treated with target drugs as follows.

[4] = test system: H1975-osiR-NCI1 cells; assay: as above; format: cell-based; details: Homo sapiens
Procedure: as §1, §2

[5] = test system: HCC827-osiR-NCI1 cells; assay: as above; format: cell-based; details: Homo sapiens
Procedure: as §1, §2

[6] = test system: H1975, PC9, and HCC827 parental and osimertinib-resistant cells; assay: Cell-growth-inhibition assays, summary over the cell panel; format: cell-based; details: Homo sapiens
Procedure: as §2

[7] = test system: PC9 cells; assay: Cell-cycle analysis by flow cytometry (propidium iodide); format: cell-based, human; details: 50 nM osimertinib or 100 nM AU-16770, 18 h
Procedure: (§3) PC9 and PC9-osiR-NCI1 cells were initially grown in an RPMI-1640 medium supplemented with 10% FBS, 1% penicillin/streptomycin, and 2 […]. Following 3–4 days of growth, cells were trypsinized, replated in 10 cm Petri dishes and grown in drug-free RPMI-1640, 10% FBS, and 1% penicillin/streptomycin. Both groups of cells were treated with DMSO (vehicle), osimertinib (50 nM), or AU-16770 (100 nM) for 18 h. Cells were trypsinized, washed with PBS, fixed in 70% ethanol, washed twice in PBS, and approximately 5 × 10^5 cells/mL were incubated in […] propidium iodide/PBS and 100 units/mL RNase to label the DNA for 1 h before it was analyzed by FACS.

[8] = test system: PC9-osiR-NCI1 cells; assay: as above; format: cell-based, human; details: 50 nM osimertinib or 100 nM AU-16770, 18 h
Procedure: as §3

[9] = test system: PC9 cells; assay: Cell-growth-inhibition end-point assay (CellTiter-Glo, 72 h); format: cell-based; details: Homo sapiens, PC-9, read-out: IC50 (osimertinib), PC9
Procedure: as §2

[10] = test system: HCC827 cells; assay: as above; format: cell-based; details: Homo sapiens, HCC827, read-out: IC50 (osimertinib), HCC827
Procedure: as §2

[11] = test system: H1975 cells; assay: as above; format: cell-based; details: Homo sapiens, NCI-H1975, osimertinib alone; Figure 1B
Procedure: as §2

Sequence of FGFR1 (P11362 22-822, species assumed): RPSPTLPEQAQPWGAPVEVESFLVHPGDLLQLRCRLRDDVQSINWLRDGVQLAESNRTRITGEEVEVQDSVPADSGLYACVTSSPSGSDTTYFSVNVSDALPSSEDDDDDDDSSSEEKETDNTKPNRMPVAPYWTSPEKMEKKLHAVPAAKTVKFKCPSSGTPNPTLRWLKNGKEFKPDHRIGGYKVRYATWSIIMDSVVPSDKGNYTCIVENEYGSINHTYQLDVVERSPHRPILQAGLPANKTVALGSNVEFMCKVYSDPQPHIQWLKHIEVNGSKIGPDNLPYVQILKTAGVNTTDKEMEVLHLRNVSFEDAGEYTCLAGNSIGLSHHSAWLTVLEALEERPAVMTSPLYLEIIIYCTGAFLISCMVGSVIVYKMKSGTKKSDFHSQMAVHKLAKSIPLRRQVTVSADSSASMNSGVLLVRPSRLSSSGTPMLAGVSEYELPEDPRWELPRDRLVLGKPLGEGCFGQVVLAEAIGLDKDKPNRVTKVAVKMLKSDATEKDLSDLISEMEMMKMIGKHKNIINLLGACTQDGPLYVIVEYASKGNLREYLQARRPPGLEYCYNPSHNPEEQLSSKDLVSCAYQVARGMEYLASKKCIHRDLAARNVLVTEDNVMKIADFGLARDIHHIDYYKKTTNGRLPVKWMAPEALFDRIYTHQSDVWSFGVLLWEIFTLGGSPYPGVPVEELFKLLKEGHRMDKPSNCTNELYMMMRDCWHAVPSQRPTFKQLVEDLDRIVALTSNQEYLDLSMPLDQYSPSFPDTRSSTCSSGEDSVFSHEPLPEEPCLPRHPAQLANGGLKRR

Row | SMILES | inhibition of FGFR1 [1] | effect on xenograft tumor growth ([2]; 5 mg/kg/day oral gavage, AU-15506 arms 14 days, AU-16770 arms 28 days) | median survival (Kaplan–Meier) ([2]; 5 mg/kg/day, combination = AU-16770-osimertinib (days 0–32), AU-15506-osimertinib (days 33–46)) | Tumor growth inhibition (TGI) ([2]; Day 28, 5 mg/kg/day oral gavage) | pIC50 [3] | pIC50 ([4]; NCI-H1975/OSIR, osimertinib alone, read-out: IC50, H1975-osiR cells) | pIC50 ([4]; read-out: IC50 (osimertinib), H1975-osiR-NCI1) | pIC50 ([5]; read-out: IC50 (osimertinib), HCC827-osiR-NCI1) | pIC50 ([5]; read-out: IC50, HCC827-osiR cells) | pIC50 ([6]; read-out: IC50s, osimertinib-resistant cells (range over cell lines)) | pIC50 ([6]; read-out: IC50s, osimertinib-sensitive cells (range over cell lines)) | Cell Cycle Phase % G1, PC9 [7] | Cell Cycle Phase % G2, PC9 [7] | Cell Cycle Phase % S, PC9 [7] | Cell Cycle Phase % G1, PC9-osiR [8] | Cell Cycle Phase % G2, PC9-osiR [8] | Cell Cycle Phase % S, PC9-osiR [8] | pIC50 [9] | pIC50 [10] | pIC50 [11]
1 | CN(C)C/C=C/C(=O)Nc1ccc(C(=O)N2CCC[C@@H](Nc3ncc(Cl)c(-c4c[nH]c5ccccc45)n3)C2)cc1 [THZ531] | 82% | – | – | – | – | – | – | – | – | – | – | – | – | – | – | – | – | – | – | –
2 | C=CC(=O)Nc1cc(Nc2nccc(-c3cn(C)c4ccccc34)n2)c(OC)cc1N(C)CCN(C)C [osimertinib] | – | induced some tumor regression | 40 days | 50% | 5.65 | 5.73 | 5.73 | 5.26 | 5.26 | 5.26 to 5.73 | 7.33 to 8.12 | 67.40% | 24.8% | 13.10% | 54.10% | 1.41% | 38.40% | 7.43 | 8.12 | 7.33
